Test results taken from PMC5773577, “Novel Miniature Membrane Active Lipopeptidomimetics against Planktonic and Biofilm Embedded Methicillin-Resistant Staphylococcus aureus” (Scientific Reports, 2018).
In brackets after ≈: the same amount, converted by molar mass.

Tests used:
MRSA ATCC 33591 [1] = test: Resistance development over 17 serial passages at sub-MIC; format: cell-based, Staphylococcus aureus; settings: at the 11th passage, constant up to the 17th passage
Experimental: For the experiment, a method as described previously was used with slight modifications. Briefly, for the experiment, on day 1 the initial MICs of all test agents were determined using routine MIC experiment protocol as described earlier. Next day, bacterial cells (100 μL) from the wells with concentrations 2–4 fold less than the MIC value for each test agent were used to set up fresh mid-log phase cultures in MHB medium for setting up the MIC plate. This was repeated for a total of 17 sub-lethal treatments with each antimicrobial agent. For every passage, corresponding glycerol stocks (15% v/v) were made for each culture and were kept at −80 °C for future use.

MRSA ATCC 33591 biofilm = test: Biofilm formation inhibition, crystal violet (CV) assay; format: cell-based, Staphylococcus aureus; settings: 24 h biofilm formation inhibition, 2.5 μg/mL
Experimental: For the experiment, a protocol as described previously was used with slight modifications. Briefly, desired concentrations of the test agents in PBS were added to the wells of a 96-well plate (100 μL). Thereafter, overnight grown stationary phase MRSA ATCC 33591 culture (~4 × 10^5 CFU/mL) in TSB medium (supplemented with 0.25% glucose and 0.5% NaCl) was added to the 96-well plates (100 μL). The plates were incubated at 37 °C without shaking for 24 h. After 24 h, the used medium was discarded and the biofilms formed were washed with PBS once. Subsequently, CV and AB assays were performed to quantify biomass and viability respectively, as described below:
For CV assay after washing the biofilms, the plates were heat fixed at 60 °C for 1 h and 0.1% aqueous CV solution (200 μL) was added to the wells. After 15 min incubation, excess CV was washed off and biomass adhered CV was dissolved in 33% glacial acetic acid (200 μL). The plates were kept at room temperature for 15 min. […] To quantify CV associated biomass, the absorbance was read at 570 nm.
The experiments were repeated on two different days and on each day 6 wells were used for a single treatment. […] Corresponding to CV and AB assay the viability of cells upon treatment was also evaluated. […] The agar plates were incubated at 37 °C for 16–24 h and CFUs were counted. […]

[2] = test system: E. faecium (E-7846), clinical isolate of vancomycin-resistant E. faecium; test: organism not typed; format: cell-based, Enterococcus faecium; settings: read-out: Minimum inhibitory concentration, MIC
Experimental: (§1) The antibacterial activity was evaluated as MIC using slight modifications to a serial broth micro dilution method as reported previously[66],[67]. Briefly, to each treatment well of the 96-well plate (Corning Incorporated, USA) 10 μL of peptidomimetic/antibiotic was added and subsequently diluted serial 2-fold in 0.2% BSA (in 0.01% acetic acid). Then to each well of the first 11 columns 100 μL of mid-log phase bacterial suspension in MHB medium was added to get 2–5 × 10^5 CFU/mL. Cultures without test peptidomimetics/antibiotics were used as growth control. Uninoculated MHB medium was used as negative control. The microtitre plates were incubated overnight with agitation (180 rpm) at 37 °C. After 16–18 h incubation, absorbance was read at 600 nm using an ELISA plate reader (Molecular Devices, Sunnyvale, CA, USA). The experiments were carried out in duplicate on at least three different days.

[3] = test system: E. faecium (E-447), clinical isolate of vancomycin-resistant E. faecium; test: organism not typed; format: cell-based, Enterococcus faecium; settings: read-out: Minimum inhibitory concentration, MIC
Experimental: as §1

[4] = test system: 48 h mature MRSA ATCC 33591 biofilms; test: Cell viability of 48 h mature biofilm embedded cells; format: cell-based, Staphylococcus aureus; settings: 24 h treatment at 20 × MIC, mean ± S.D., two experiments, untreated 9.31 ± 0.11
Experimental: For enumeration of cells after 48 h incubation, the medium was aspirated and the biofilms were washed with PBS once. Then 200 μL PBS was added to each well of the chamber slide and the chambers were thoroughly scraped with a pipette tip. The bacterial suspension obtained was plated on BHI agar after dilution in PBS as described above. The resulting CFU/mL from two different days were counted and plotted as mean ± S.D.

[5] = test system: 48 h mature MRSA ATCC 33591 biofilms; test: 48 h mature biofilm, confocal laser scanning microscopy (Live/Dead); format: cell-based, Staphylococcus aureus; settings: 24 h treatment at 20 × MIC (S-7 226 μg/mL, S-8 28 μg/mL, VAN 28 μg/mL), untreated 22 μm
Experimental: For the experiment, a protocol as described previously was used with slight modifications[24],[72]. Briefly, stationary phase MRSA ATCC 33591 culture ~10^5 CFU/mL in TSB medium (supplemented with 0.25% glucose and 0.5% NaCl) was added to the well of an 8-well chamber slide (200 μL). The slide was incubated at 37 °C without shaking for 24 h. After 24 h, the medium was discarded and the biofilm was washed with PBS once (10 mM sodium phosphate, 150 mM NaCl, pH 7.3). […] After 48 h (24 h + 24 h), the planktonic cells were removed and the biofilms were washed with PBS once. To the wells, 200 μL of PBS containing BacLight Live/Dead viability stain [SYTO9 (green fluorescence) and propidium iodide (PI) (red fluorescence) in equal volume] was added and the chamber slides were incubated at room temperature for 15 min in dark. After 15 min, the stain was removed and biofilms were washed with PBS once. To fix the biofilms, 200 μL of neutral buffered formalin (10% in PBS) was added to each well and the slides were kept at room temperature in dark for 30 min. After fixation, the biofilms were washed once, the chamber was removed and a cover slip was placed over the slide. The biofilms were viewed with an Olympus FluoView^TM FV1000 confocal laser scanning microscope (2D and z-stacking). […] For each sample, the biofilms thickness was also determined using z-scanning confocal microscopy. […]

MRSA ATCC 33591 [6] = test: Cell viability corresponding to membrane depolarization experiment; format: cell-based, Staphylococcus aureus; settings: dye-loaded cells in HEPES-glucose buffer, 4 × MIC, 2 min incubation
Experimental: Briefly, exponential phase cells grown in MHB were harvested by centrifugation, washed and re-suspended in respiration buffer (5 mM HEPES, 20 mM glucose, pH 7.2) to 2.5 × 10^6 CFU/mL. […] The dye-loaded cells (800 μL) were then treated with peptidomimetics at respective 1× and 4× MIC concentrations (2–20 μL) and consequent fluorescence increase after 2 min of addition was measured in a Shimadzu RF-5301 PC spectrofluorimeter. As controls IL, melittin and VAN were also assayed under identical conditions. […] The viability of dye-loaded cells corresponding to depolarization experiment at 4 × MIC concentration was also measured by plating the diluted aliquots onto BHI agar plates.
Cell viability corresponding to membrane depolarization experiment.
dye-loaded cells suspended in HEPES-glucose buffer (5 mM, 20 mM glucose, pH 7.2)
were incubated with different test agents for 2 min and subsequently diluted
appropriately and plated on BHI agar plates. The plates were incubated at 37 °C for 16-
18 h and colonies were counted. The experiment was repeated on two different days
and mean ± S.D. is presented here.

[7] = test system: Vancomycin-resistant E. faecium (ATCC 700221); test: microbe, parasite or virus in culture; format: cell-based; settings: Enterococcus faecium, ATCC700221, MHB, 2–5 × 10^5 CFU/mL, 16–18 h, 37 °C, read-out: Minimum inhibitory concentration, MIC
Experimental: as §1

E. faecalis (ATCC 29212) = test: microbe, parasite or virus in culture; format: cell-based; settings: Enterococcus faecalis, ATCC29212, MHB, 2–5 × 10^5 CFU/mL, 16–18 h, 37 °C, read-out: Minimum inhibitory concentration, MIC
Experimental: as §1

For `CN[C@H](CC(C)C)C(=O)N[C@H]1C(=O)N[C@@H](CC(N)=O)C(=O)N[C@H]2C(=O)N[C@H]3C(=O)N[C@H](C(=O)N[C@H](C(=O)O)c4cc(O)cc(O)c4-c4cc3ccc4O)[C@H](O)c3ccc(c(Cl)c3)Oc3cc2cc(c3O[C@@H]2O[C@H](CO)[C@@H](O)[C@H](O)[C@H]2O[C@H]2C[C@](C)(N)[C@H](O)[C@H](C)O2)Oc2ccc(cc2Cl)[C@H]1O` [VAN, vancomycin], the “fold increase in MIC” value (MRSA ATCC 33591 [1]) was 8 fold, the “reduction of biomass (CV assay)” value (MRSA ATCC 33591 biofilm) was > 95% and the MIC [2] was > 45.4 µg/mL. For the same compound, the MIC [3] was > 45.4 µg/mL, the “number of surviving cells” value [4] was 9.08 ± 0.11 log CFU/mL and the biofilm thickness [5] was 14 μm. The “log reduction in viability relative to untreated control” value (MRSA ATCC 33591 [6]) was 0.6 log, the MIC [7] was > 45.4 µg/mL and the MIC (E. faecalis (ATCC 29212)) was 1.4 µg/mL (≈ 0.966 µM).
